System: newborn piglets
Assay: Meconium aspiration model: newborn piglets given human meconium by deep intratracheal instillation, monitored 7 days
Type: in vivo
Details: 3 ml/kg of 20% human meconium intratracheal, daily oral dosage of 0.7 mg/kg started within one hour after birth, versus placebo
Protocol: Immediately after birth, twelve newborn piglets are given 3 ml/kg of a 20% solution of human meconium by deep intratracheal instillation. Next, the piglets are randomly assigned to two groups of each six animals. Within one hour after birth, one group is treated with a daily oral dosage of 0.7 mg/kg estetrol whilst the control group is treated with placebo. During the next 7 days the condition of the piglets belonging to both groups are monitored. […] Example 1 was repeated, except that this time one group was treated with a daily oral dosage of 30 μg/kg estradiol instead of estetrol.

For `C[C@]12CC[C@@H]3c4ccc(O)cc4CC[C@H]3[C@@H]1[C@@H](O)[C@@H](O)[C@@H]2O` [estetrol], the “incidence of severe complications of MAS versus control group” value was “substantially lower”.

Reference: patent US8367647B2, “Treatment of meconium aspiration syndrome with estrogens” (Pantarhei Bioscience B.V., priority 2007, dated 2013)
